This is an account of results in publication PMC8162404, “Proteomimetic surface fragments distinguish targets by function” (Chemical Science, 2020).

For test [1], the target named is T1, S100B (Homo sapiens, UniProt P04271).
T1 construct: made in house; host or cells: Escherichia coli BL21(DE3)
T1 sequence (P04271 1-92): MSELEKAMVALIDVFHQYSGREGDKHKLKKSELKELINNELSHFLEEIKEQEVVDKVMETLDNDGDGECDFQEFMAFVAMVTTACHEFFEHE
Briefly: Competition pull-down with native ligand RSK1 (689–735). The class given is binding. The note with it: H14 library; competitor peptide 200 µM; read-out: Surface mapping KD (apparent), competition.

In another test the target is T2, Gal-1 (Homo sapiens, UniProt P09382).
T2 construct: made in house; host or cells: E. coli BL21(DE3)
Briefly: Pull-down assay with immobilized protein and LSM libraries. Type of test: binding. The note with it: H14 library; 1:1 binding assumed; read-out: Surface mapping KD (apparent). Put shortly:
(§1)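 Buffers were HEPES pH 7.4 with 150 mM NaCl, plus 1 mM TCEP and 1 mM CaCl2 (50 mM HEPES) for S100A4 and S100B, 1 mM TCEP for Gal-1, and no additive for RecQ-WH. Immobilized protein at 64 µM was equilibrated 30 min with the LSM sublibrary, and unbound probes were measured by LC-MS.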

For test [2], the target named is T1, S100B. The description is as above. Type of test: binding. The settings on record: H14 library; 1:1 binding assumed; read-out: Surface mapping KD (apparent). Put shortly:
as §1

Another test has as its target T3, S100A4 (Homo sapiens, UniProt P26447).
T3 construct: made in house; host or cells: Escherichia coli BL21(DE3)
The description is as above. Type of test: binding. The note with it: H14 library; 1:1 binding assumed; read-out: Surface mapping KD (apparent). Put shortly: as §1

The next test deals with T4, CaM (Bos taurus, UniProt P62157).
T4 construct: made in house; host or cells: E. coli BL21 (DE3)
The test is described as above. The class given is binding, bovine. The settings on record: H14 library; 1:2 stoichiometry assumed; read-out: Surface mapping KD (apparent). The method, boiled down: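 CaM buffer was 20 mM HEPES pH 7.4, 150 mM NaCl, 5 mM CaCl2. LSM sublibrary members ([…]) incubated 30 min, RT, with equimolar His-tagged protein on Co-NTA resin. HPLC-MS measured unbound probes; bound fraction relative to resin-only background gave dissociation constants.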

T3 sequence (P26447 whole entry): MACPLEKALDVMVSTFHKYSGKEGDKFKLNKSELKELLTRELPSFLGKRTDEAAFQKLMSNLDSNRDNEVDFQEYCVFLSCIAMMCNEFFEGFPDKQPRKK
T2 sequence (P09382 whole entry): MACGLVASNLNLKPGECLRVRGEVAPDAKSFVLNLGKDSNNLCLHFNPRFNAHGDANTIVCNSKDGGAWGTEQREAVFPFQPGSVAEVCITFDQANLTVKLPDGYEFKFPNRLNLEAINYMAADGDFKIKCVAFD

Regarding `CC(C)[C@@H](CC(=O)N[C@H]1CCCC[C@@H]1C(=O)N[C@H]1CCCC[C@@H]1C(=O)N[C@@H](CCC(N)=O)CC(=O)N[C@H]1CCCC[C@@H]1C(N)=O)NC(=O)[C@H]1CCCC[C@@H]1N` [H14 VQ], the Kd on S100B [1] is 339 µM; on Gal-1, 161 µM.
With `CC[C@H](C)[C@@H](CC(=O)N[C@H]1CCCC[C@@H]1C(=O)N[C@H]1CCCC[C@@H]1C(=O)N[C@@H](CCCCN)CC(=O)N[C@H]1CCCC[C@@H]1C(N)=O)NC(=O)[C@H]1CCCC[C@@H]1N` [H14 IK], the Kd on S100B [1] is 216 µM; on S100B [2] it was 84 µM; on S100A4, 307 µM; on CaM, 31 µM.
In the case of `CC(C)[C@@H](CC(=O)N[C@H]1CCCC[C@@H]1C(=O)N[C@H]1CCCC[C@@H]1C(=O)N[C@@H](CCCCN)CC(=O)N[C@H]1CCCC[C@@H]1C(N)=O)NC(=O)[C@H]1CCCC[C@@H]1N` [H14 VK], the Kd was 390 µM on S100B [1], 296 µM on Gal-1, 138 µM at S100B [2] and 67 µM at CaM.
Regarding `CC(C)C[C@@H](CC(=O)N[C@H]1CCCC[C@@H]1C(=O)N[C@H]1CCCC[C@@H]1C(=O)N[C@@H](CC(N)=O)CC(=O)N[C@H]1CCCC[C@@H]1C(N)=O)NC(=O)[C@H]1CCCC[C@@H]1N` [H14 LN], the Kd on S100B [1] was 254 µM; at Gal-1, 314 µM; on S100B [2], 409 µM; at S100A4, 433 µM; at CaM it was 294 µM.
In the case of `CC(C)C[C@@H](CC(=O)N[C@H]1CCCC[C@@H]1C(=O)N[C@H]1CCCC[C@@H]1C(=O)N[C@H](CC(=O)N[C@H]1CCCC[C@@H]1C(N)=O)[C@@H](C)O)NC(=O)[C@H]1CCCC[C@@H]1N` [H14 LT], the Kd at S100B [1] worked out at 294 µM; on Gal-1 it was 336 µM; on S100B [2], 162 µM; at S100A4, 66 µM; at CaM it was 39 µM.
On to `CC[C@H](C)[C@@H](CC(=O)N[C@H]1CCCC[C@@H]1C(=O)N[C@H]1CCCC[C@@H]1C(=O)N[C@@H](CCC(N)=O)CC(=O)N[C@H]1CCCC[C@@H]1C(N)=O)NC(=O)[C@H]1CCCC[C@@H]1N` [H14 IQ], for which the Kd was determined as 387 µM at S100B [1], 497 µM at S100B [2], 319 µM on S100A4 and 321 µM on CaM.
Consider `CC[C@H](C)[C@@H](CC(=O)N[C@H]1CCCC[C@@H]1C(=O)N[C@H]1CCCC[C@@H]1C(=O)N[C@@H](C)CC(=O)N[C@H]1CCCC[C@@H]1C(N)=O)NC(=O)[C@H]1CCCC[C@@H]1N` [H14 IA], for which the Kd was found to be 296 µM on S100B [1]; 247 µM at Gal-1; 108 µM on S100B [2]; 7 µM at S100A4; 16 µM at CaM.
The corresponding values for `CSCC[C@@H](CC(=O)N[C@H]1CCCC[C@@H]1C(=O)N[C@H]1CCCC[C@@H]1C(=O)N[C@@H](C)CC(=O)N[C@H]1CCCC[C@@H]1C(N)=O)NC(=O)[C@H]1CCCC[C@@H]1N` [H14 MA] are 382 µM, 385 µM, 380 µM, 72 µM and 16 µM.
In the case of `CC(C)C[C@@H](CC(=O)N[C@H]1CCCC[C@@H]1C(=O)N[C@H]1CCCC[C@@H]1C(=O)N[C@@H](CCCCN)CC(=O)N[C@H]1CCCC[C@@H]1C(N)=O)NC(=O)[C@H]1CCCC[C@@H]1N` [H14 LK], the Kd on S100B [1] worked out at 316 µM; on S100B [2] it was 82 µM; on S100A4, 312 µM; at CaM, 27 µM.
Consider `CC(C)[C@@H](CC(=O)N[C@H]1CCCC[C@@H]1C(=O)N[C@H]1CCCC[C@@H]1C(=O)N[C@@H](CO)CC(=O)N[C@H]1CCCC[C@@H]1C(N)=O)NC(=O)[C@H]1CCCC[C@@H]1N` [H14 VS], for which the Kd at S100B [1] came out at 460 µM; at Gal-1 it was 190 µM; at S100A4, 263 µM; on CaM it was 264 µM.
Turning to `C[C@@H](O)[C@@H](CC(=O)N[C@H]1CCCC[C@@H]1C(N)=O)NC(=O)[C@H]1CCCC[C@@H]1NC(=O)[C@H]1CCCC[C@@H]1NC(=O)C[C@H](Cc1ccc(O)cc1)NC(=O)[C@H]1CCCC[C@@H]1N` [H14 YT], the Kd at S100B [1] came to 403 µM; at Gal-1, 396 µM; on S100B [2] it was 416 µM; on S100A4, 222 µM; on CaM, 30 µM.
As for `CC(C)[C@@H](CC(=O)N[C@H]1CCCC[C@@H]1C(=O)N[C@H]1CCCC[C@@H]1C(=O)N[C@@H](CCCNC(=N)N)CC(=O)N[C@H]1CCCC[C@@H]1C(N)=O)NC(=O)[C@H]1CCCC[C@@H]1N` [H14 VR], the Kd at S100B [1] turned out to be 221 µM; at Gal-1 it was 289 µM; on S100B [2] it was 77 µM; on S100A4, 284 µM; on CaM, 40 µM.
In the case of `NC(=O)[C@H]1CCCC[C@@H]1NC(=O)C[C@H](CO)NC(=O)[C@H]1CCCC[C@@H]1NC(=O)[C@H]1CCCC[C@@H]1NC(=O)C[C@H](Cc1ccc(O)cc1)NC(=O)[C@H]1CCCC[C@@H]1N` [H14 YS], the Kd on S100B [1] came out at 399 µM; at Gal-1, 336 µM; at S100A4 it was 346 µM; at CaM, 67 µM.
Take `NC(=O)CC[C@@H](CC(=O)N[C@H]1CCCC[C@@H]1C(N)=O)NC(=O)[C@H]1CCCC[C@@H]1NC(=O)[C@H]1CCCC[C@@H]1NC(=O)C[C@H](Cc1ccccc1)NC(=O)[C@H]1CCCC[C@@H]1N` [H14 FQ]: the Kd at S100B [1] came to 494 µM; at S100B [2], 433 µM; on S100A4 it was 377 µM; at CaM, 49 µM.
For the compound `CC[C@H](C)[C@@H](CC(=O)N[C@H]1CCCC[C@@H]1C(=O)N[C@H]1CCCC[C@@H]1C(=O)N[C@@H](CC(N)=O)CC(=O)N[C@H]1CCCC[C@@H]1C(N)=O)NC(=O)[C@H]1CCCC[C@@H]1N` [H14 IN], the Kd on S100B [1] came out at 325 µM; at S100A4 it was 321 µM; on CaM it was 281 µM.
Take `C[C@@H](CC(=O)N[C@H]1CCCC[C@@H]1C(=O)N[C@H]1CCCC[C@@H]1C(=O)N[C@H](CC(=O)N[C@H]1CCCC[C@@H]1C(N)=O)Cc1ccc(O)cc1)NC(=O)[C@H]1CCCC[C@@H]1N` [H14 AY]: the Kd is 304 µM at S100B [1]; 353 µM at Gal-1; 192 µM at S100B [2]; 221 µM at S100A4; 119 µM at CaM.
Turning to `CSCC[C@@H](CC(=O)N[C@H]1CCCC[C@@H]1C(N)=O)NC(=O)[C@H]1CCCC[C@@H]1NC(=O)[C@H]1CCCC[C@@H]1NC(=O)C[C@@H](NC(=O)[C@H]1CCCC[C@@H]1N)C(C)C` [H14 VM], the Kd is 229 µM at S100B [1], 93 µM at S100B [2], 5 µM at S100A4 and 26 µM on CaM.
`CC(C)[C@@H](CC(=O)N[C@H]1CCCC[C@@H]1C(=O)N[C@H]1CCCC[C@@H]1C(=O)N[C@@H](CC(N)=O)CC(=O)N[C@H]1CCCC[C@@H]1C(N)=O)NC(=O)[C@H]1CCCC[C@@H]1N` [H14 VN]: the Kd was determined as 271 µM on S100B [1] and 302 µM at Gal-1.
For `CC(C)[C@@H](CC(=O)N[C@H]1CCCC[C@@H]1C(=O)N[C@H]1CCCC[C@@H]1C(=O)N[C@@H](CCC(=O)O)CC(=O)N[C@H]1CCCC[C@@H]1C(N)=O)NC(=O)[C@H]1CCCC[C@@H]1N` [H14 VE], the results for the Kd on S100B [1] and at Gal-1 were 369 µM and 313 µM, respectively.
Take `CC[C@H](C)[C@@H](CC(=O)N[C@H]1CCCC[C@@H]1C(=O)N[C@H]1CCCC[C@@H]1C(=O)N[C@@H](CCCNC(=N)N)CC(=O)N[C@H]1CCCC[C@@H]1C(N)=O)NC(=O)[C@H]1CCCC[C@@H]1N` [H14 IR]: the Kd at S100B [1] is 174 µM; on S100B [2], 37 µM; on S100A4, 103 µM; at CaM, 20 µM.
